Where two headings read alike, the source gives them in different places.
Columns and labels:
human JAK1 = target: T1, human JAK1 (Homo sapiens, UniProt P23458); assay: JAK1 inhibition assay (polyGT substrate / Ulight-JAK1 peptide); type: biochemical; settings: recombinant human JAK1 catalytic domain; polyGT or Ulight-JAK1 peptide assay
T1 construct: catalytic domain, amino acids 866-1154; catalog number PV4774; purchased Invitrogen PV4774
Procedure, shortened: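 Signal scaled between vehicle and 10 μM staurosporine. Radiometric polyGT reactions ran 45 min at 30 °C, counted after phosphoric-acid stop. Ulight peptide reactions ran 60 min at room temperature, fluorescence read after adding Eu-PT66 detection mix with EDTA.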

[1] = tested on: pSTAT1(2)-luciferase reporter in HeLa cells triggered with human OSM; assay: JAK-STAT signalling assay; type: cell-based; settings: HeLa cells, pSTAT1(2)-luciferase reporter, human OSM 33 ng/mL, read-out: JAK-STAT IC50
Procedure, shortened: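 Compound added 60 min before 33 ng/mL (final) human OSM; after overnight stimulation at 37 °C, luciferase signal from a transiently transfected pSTAT1(2) reporter in HeLa cells was read, with LacZ as internal control. EC50 derived from percent-inhibition dose-response curves.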

human JAK3 = target: T2, human JAK3 (Homo sapiens, UniProt P52333); assay: JAK3 inhibition assay; type: biochemical; settings: recombinant human JAK3 catalytic domain; polyGT substrate
T2 construct: catalytic domain (amino acids 781-1124; catalog number PV3855); purchased Invitrogen PV3855
Procedure, shortened: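 Radiometric kinase assay: 0.5 ng JAK3 with 2.5 μg polyGT in Tris pH 7.5/MgCl2 buffer, 1 μM ATP plus 0.25 μCi 33P-γ-ATP, 1% DMSO, 45 min at 30 °C, stopped with phosphoric acid.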

T2 sequence (P52333 781-1124): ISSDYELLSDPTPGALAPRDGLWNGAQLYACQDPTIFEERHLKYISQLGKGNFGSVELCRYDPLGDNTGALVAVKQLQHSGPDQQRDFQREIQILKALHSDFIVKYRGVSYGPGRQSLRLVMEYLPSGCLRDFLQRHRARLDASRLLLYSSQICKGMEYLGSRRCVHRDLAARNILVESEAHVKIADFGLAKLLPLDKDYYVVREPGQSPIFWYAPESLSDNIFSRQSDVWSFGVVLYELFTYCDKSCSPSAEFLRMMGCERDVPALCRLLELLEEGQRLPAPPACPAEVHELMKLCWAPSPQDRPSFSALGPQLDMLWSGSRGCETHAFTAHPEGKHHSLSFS
T1 sequence (P23458 866-1154): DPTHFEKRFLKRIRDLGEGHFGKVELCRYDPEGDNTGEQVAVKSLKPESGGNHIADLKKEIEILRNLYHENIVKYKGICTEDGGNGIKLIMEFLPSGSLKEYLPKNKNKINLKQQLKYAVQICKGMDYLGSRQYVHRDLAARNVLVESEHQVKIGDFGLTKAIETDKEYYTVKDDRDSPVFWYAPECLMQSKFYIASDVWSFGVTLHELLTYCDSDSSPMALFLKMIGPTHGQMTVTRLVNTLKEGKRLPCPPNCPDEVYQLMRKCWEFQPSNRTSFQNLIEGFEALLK

| Compound | IC50 (human JAK1) [nM] | IC50 ([1]; Homo sapiens, HeLa) [nM] | IC50 (human JAK3) [nM] | IC50 [1] [nM] |
| --- | --- | --- | --- | --- |
| CCc1cc(CNS(C)(=O)=O)c(F)cc1N(C)c1cc2c(cn1)ncn2C [Compound 325, N-{5-Ethyl-2-fluoro-4-[methyl-(1-methyl-1H-imidazo[4,5-c]pyridin-6-yl)-amino]-benzyl}-methanesulfonamide] | 0.01 to 100 | 1 to 500 | 101 to 500 | – |
| CCc1cc(CNS(=O)(=O)C(F)F)c(F)cc1N(C)c1cc2c(cn1)ncn2C [Compound 327, N-{5-Ethyl-2-fluoro-4-[methyl-(1-methyl-M-imidazo[4,5-c]pyridin-6-yl)-amino]-benzyl}-C,C-difluoro-methanesulfonamide] | 0.01 to 100 | 1 to 500 | 0.01 to 100 | – |
| CCc1cc(C2CN(S(=O)(=O)C(F)F)C2)ncc1N(C)c1cc2c(cn1)ncn2C [Compound 329, {6-[1-(Difluoro-methanesulfonyl)-azetidin-3-yl]-4-ethyl-pyridin-3-yl}-methyl-(1-methyl-1H-imidazo[4,5-c]pyridin-6-yl)-amine] | 0.01 to 100 | – | > 1000 | 1 to 500 |
| CCc1cc(C2CN(S(=O)(=O)C(C)C)C2)ncc1N(C)c1cc2c(cn1)ncn2C [Compound 330, {4-Ethyl-6-[1-(propane-2-sulfonyl)-azetidin-3-yl]-pyridin-3-yl}-methyl-(1-methyl-1H-imidazo[4,5-c]pyridin-6-yl)-amine] | 0.01 to 100 | – | > 1000 | > 1000 |
| CCc1cc(C2CN(C(=O)C(F)F)C2)ncc1N(C)c1cc2c(cn1)ncn2C [Compound 333, 1-(3-{4-Ethyl-5-[methyl-(1-methyl-1H-imidazo[4,5-c]pyridin-6-yl)-amino]-pyridin-2-yl}-azetidin-1-yl)-2,2-difluoro-ethanone] | 0.01 to 100 | – | 501 to 1000 | > 1000 |
| CCc1cc(CNS(=O)(=O)C(F)F)ncc1N(C)c1cc2c(cn1)ncn2C [Compound 343, N-{4-Ethyl-5-[methyl-(1-methyl-1H-imidazo[4,5-c]pyridin-6-yl)-amino]-pyridin-2-ylmethyl}-C,C-difluoro-methane sulfonamide] | 0.01 to 100 | – | 101 to 500 | 501 to 1000 |

Results, then the molecule that gave them:

| IC50 (human JAK1) [nM] | IC50 ([1]; Homo sapiens, HeLa) [nM] | IC50 (human JAK3) [nM] | IC50 [1] [nM] | Compound |
| --- | --- | --- | --- | --- |
| 0.01 to 100 | 501 to 1000 | 101 to 500 | – | CCc1cc(CNC(=O)C(F)F)c(F)cc1N(C)c1cc2c(cn1)ncn2C [Compound 326, N-{5-Ethyl-2-fluoro-4-[methyl-(1-methyl-M-imidazo[4,5-c]pyridin-6-yl)-amino]-benzyl}-2,2-difluoro-acetamide] |
| 0.01 to 100 | – | > 1000 | > 1000 | CCc1cc(C2CN(S(C)(=O)=O)C2)ncc1N(C)c1cc2c(cn1)ncn2C [Compound 328, [4-Ethyl-6-(1-methanesulfonyl-azetidin-3-yl)-pyridin-3-yl]-methyl-(1-methyl-1H-imidazo[4,5-c]pyridin-6-yl)-amine] |
| 0.01 to 100 | – | > 1000 | > 1000 | CCc1cc(C2CN(CC#N)C2)ncc1N(C)c1cc2c(cn1)ncn2C [Compound 331, (3-{4-Ethyl-5-[methyl-(1-methyl-1H-imidazo[4,5-c]pyridin-6-yl)-amino]-pyridin-2-yl}-azetidin-1-yl)-acetonitrile] |
| 101 to 500 | – | > 1000 | > 1000 | CCc1cc(C2CN(C(C)=O)C2)ncc1N(C)c1cc2c(cn1)ncn2C [Compound 332, 1-(3-{4-Ethyl-5-[methyl-(1-methyl-1H-imidazo[4,5-c]pyridin-6-yl)-amino]-pyridin-2-yl}-azetidin-1-yl)-ethanone] |
| 0.01 to 100 | – | 101 to 500 | > 1000 | CCc1cc(C2CN(C(=O)C(F)(F)F)C2)ncc1N(C)c1cc2c(cn1)ncn2C [Compound 334, 1-(3-{4-Ethyl-5-[methyl-(1-methyl-1H-imidazo[4,5-c]pyridin-6-yl)-amino]-pyridin-2-yl}-azetidin-1-yl)-2,2,2-trifluoro-ethanone] |
| 0.01 to 100 | – | 101 to 500 | > 1000 | CCc1ccccc1N(CC(F)F)c1cc2c(cn1)ncn2C [Compound 463, N-(2,2-difluoroethyl)-N-(2-ethylphenyl)-1-methyl-1H-imidazo[4,5-c]pyridin-6-amine] |
